Data reported in patent US11813340B2, “PSMA targeted radiohalogenated urea-polyaminocarboxylates for cancer radiotherapy” (The Johns Hopkins University, priority 2018, dated 2023).
Entries after “also recorded” stand apart in the source; their conditions may differ. Read-outs that look alike come from different tables or passages of the source.

Columns and labels:
[1] = system: PSMA + PC3-PIP and PSMA-PC3-flu flank xenografts; details: cited from earlier work; for Biodistribution, Blood / Biodistribution, Flu tumor / Biodistribution, PIP tumor / Biodistribution, Spleen / Biodistribution, Stomach / Biodistribution, kidney / Biodistribution, thyroid: no blocker, inhibitors reported in WO2017070482
[2] = system: preclinical models of human prostate cancer (PC); details: Kiess et al., 2016, cited from earlier work
[3] = system: PSMA + PC3-PIP and PSMA-PC3-flu flank xenografts; experiment: Biodistribution of At-211 labeled PSMA inhibitors with and without cold blocking agent (Tables 6-8); format: in vivo, athymic mice
Description: Organs were harvested 1, 4, and 24 h post-injection (n=5 per time point).

[4] = system: PSMA+PC3-PIP and PSMA-PC3-flu flank xenografts; experiment: Biodistribution of [125I/211At]2 and 3 with and without co-injection of DCIBzL (Example 6); format: in vivo, athymic mice
Excerpt: Final compounds were purified by HPLC.

PSMA+ PC3-PIP = experiment: Efficacy in subcutaneous (SC) PSMA+ PC3-PIP model; format: in vivo, NOD/SCID/IL-2rγ−/− (NSG) mice; details: single intravenous injection of different doses; FIG. 3A
Description: (§1) Two murine models of human PC were generated, a subcutaneous (SC) model of PSMA+PC3-PIP and PSMA-PC3-flu cells and a metastatic model of PSMA+ PC3ML/PSMA/fLuc in NOD/SCID/IL-2rγ−/− (NSG) mice. Single intravenous injection of different doses (FIG. 3) was given to each animal and the tumor progression was monitored by measuring the SC tumor volume or by performing bioluminescence imaging for the metastatic model.

PSMA− PC3-flu = experiment: Efficacy in subcutaneous (SC) PSMA− PC3-flu model; format: in vivo, NOD/SCID/IL-2rγ−/− (NSG) mice; details: single intravenous injection of different doses; FIG. 3A
Description: as §1

CD-1 mice = experiment: Long-term toxicity in healthy immunocompetent mice; format: in vivo; details: 1.48 MBq, 0.74 MBq, 0.244 MBq; up to 4 months after treatment
[5] = 21-24 Hour (footnote b), + 0.25 nmole YC-I-27
[6] = 21-24 Hour (footnote b), no blocker
[7] = previously shown, Mease et al., 2018

SMILES: O=C(O)CC[C@H](NC(=O)NC(CCCCNC(=O)c1ccc([211At])cc1)C(=O)O)C(=O)O (stereo partly drawn) [YC-I-27, (2S)-2-(3-(1-Carboxy-5-(4-211At-Astatobenzamido)Pentyl)Ureido)-Pentanedioic Acid]
- Biodistribution, Blood ([1]; 1 Hour): 1.7 ± 0.3 % injected dose/g
- Biodistribution, Flu tumor ([1]; 1 Hour): 2.2 ± 0.4 % injected dose/g
- Biodistribution, PIP tumor ([1]; 1 Hour): 17.9 ± 3.0 % injected dose/g
- Biodistribution, Spleen ([1]; 1 Hour): 29 ± 10 % injected dose/g
- Biodistribution, Stomach ([1]; 1 Hour): 10.1 ± 1.7 % injected dose/g
- Biodistribution, kidney ([1]; 1 Hour): 71 ± 12 % injected dose/g
- Biodistribution, thyroid ([1]; 1 Hour): 3.7 ± 1.1 % injected dose/g
- Biodistribution, Blood ([1]; 4 H): 1.0 ± 0.1 % injected dose/g
- Biodistribution, Flu tumor ([1]; 4 H): 1.5 ± 0.2 % injected dose/g
- Biodistribution, Spleen ([1]; 4 H): 20.3 ± 3.6 % injected dose/g
- Biodistribution, kidney ([1]; 4 H): 60 ± 12 % injected dose/g
- Biodistribution, thyroid ([1]; 4 H): 3.8 ± 1.2 % injected dose/g
- Biodistribution, Blood ([1]; 21-24 Hour (footnote a)): 0.5 ± 0.05 % injected dose/g
- Biodistribution, Flu tumor ([1]; 21-24 Hour (footnote a)): 1.2 ± 0.2 % injected dose/g
- Biodistribution, PIP tumor ([1]; 21-24 Hour (footnote a)): 31.1 ± 9.8 % injected dose/g
- Biodistribution, Spleen ([1]; 21-24 Hour (footnote a)): 8.0 ± 2.0 % injected dose/g
- Biodistribution, Stomach ([1]; 21-24 Hour (footnote a)): 9.4 ± 3.0 % injected dose/g
- Biodistribution, kidney ([1]; 21-24 Hour (footnote a)): 57.4 ± 7.4 % injected dose/g
- Biodistribution, thyroid ([1]; 21-24 Hour (footnote a)): 6.5 ± 2.0 % injected dose/g
- efficacy as PSMA-targeted radiopharmaceutical therapy (RPT) agent [2]: high efficacy
- renal toxicity ([2]; due to high uptake and long retention in kidney): caused renal failure

SMILES: O=C([O-])CN1CCN(CC(=O)[O-])CCN(CC(=O)NCCCCC(=O)N(CCCC[C@H](NC(=O)N[C@@H](CCC(=O)O)C(=O)O)C(=O)O)Cc2ccc([211At])cc2)CCN(CC(=O)[O-])CC1.[Lu+3] [[^211At]VK-02-90-Lu]
- Biodistribution, Blood ([3]; 1 Hour, 0.5 nmole YC-I-27): 0.5 ± 0.1 % injected dose/g
- Biodistribution, Flu tumor ([3]; 1 Hour, 0.5 nmole YC-I-27): 0.4 ± 0.1 % injected dose/g
- Biodistribution, PIP tumor ([3]; 1 Hour, 0.5 nmole YC-I-27): 25.4 ± 4.4 % injected dose/g
- Biodistribution, Spleen ([3]; 1 Hour, 0.5 nmole YC-I-27): 0.3 ± 0.4 % injected dose/g
- Biodistribution, Stomach ([3]; 1 Hour, 0.5 nmole YC-I-27): 0.4 ± 0.2 % injected dose/g
- Biodistribution, kidney ([3]; 1 Hour, 0.5 nmole YC-I-27): 2.2 ± 0.6 % injected dose/g
- Biodistribution, lacrimal gland ([3]; 1 Hour, 0.5 nmole YC-I-27): 0 % injected dose/g
- Biodistribution, salivary gland ([3]; 1 Hour, 0.5 nmole YC-I-27): 0.4 ± 0.15 % injected dose/g
- Biodistribution, Blood ([3]; 1 Hour, + 0.25 nmole YC-I-27): 0.6 ± 0.04 % injected dose/g
- Biodistribution, Flu tumor ([3]; 1 Hour, + 0.25 nmole YC-I-27): 0.4 ± 0.1 % injected dose/g
- Biodistribution, PIP tumor ([3]; 1 Hour, + 0.25 nmole YC-I-27): 34.2 ± 7.8 % injected dose/g
- Biodistribution, Spleen ([3]; 1 Hour, + 0.25 nmole YC-I-27): 0.5 ± 0.4 % injected dose/g
- Biodistribution, Stomach ([3]; 1 Hour, + 0.25 nmole YC-I-27): 0.4 ± 0.2 % injected dose/g
- Biodistribution, kidney ([3]; 1 Hour, + 0.25 nmole YC-I-27): 5.0 ± 1.6 % injected dose/g
- Biodistribution, lacrimal gland ([3]; 1 Hour, + 0.25 nmole YC-I-27): 0.1 ± 0.4 % injected dose/g
- Biodistribution, salivary gland ([3]; 1 Hour, + 0.25 nmole YC-I-27): 0.4 ± 0.15 % injected dose/g
- Biodistribution, Blood ([3]; 1 Hour, no blocker): 0.8 ± 0.2 % injected dose/g
- Biodistribution, Flu tumor ([3]; 1 Hour, no blocker): 0.4 ± 0.2 % injected dose/g
- Biodistribution, PIP tumor ([3]; 1 Hour, no blocker): 30.6 ± 4.8 % injected dose/g
- Biodistribution, Spleen ([3]; 1 Hour, no blocker): 2.5 ± 0.9 % injected dose/g
- Biodistribution, Stomach ([3]; 1 Hour, no blocker): 0.4 ± 0.1 % injected dose/g
- Biodistribution, kidney ([3]; 1 Hour, no blocker): 90 ± 43 % injected dose/g
- Biodistribution, lacrimal gland ([3]; 1 Hour, no blocker): 0.8 ± 0.9 % injected dose/g
- Biodistribution, salivary gland ([3]; 1 Hour, no blocker): 0.5 ± 0.2 % injected dose/g
- Biodistribution, Blood ([3]; 4 H, 0.5 nmole YC-I-27): 0.2 ± 0.1 % injected dose/g
- Biodistribution, Flu tumor ([3]; 4 H, 0.5 nmole YC-I-27): 0.1 ± 0.04 % injected dose/g
- Biodistribution, PIP tumor ([3]; 4 H, 0.5 nmole YC-I-27): 18.7 ± 5.4 % injected dose/g
- Biodistribution, Spleen ([3]; 4 H, 0.5 nmole YC-I-27): 0.8 ± 0.5 % injected dose/g
- Biodistribution, Stomach ([3]; 4 H, 0.5 nmole YC-I-27): 0.4 ± 0.05 % injected dose/g
- Biodistribution, kidney ([3]; 4 H, 0.5 nmole YC-I-27): 0.7 ± 0.1 % injected dose/g
- Biodistribution, lacrimal gland ([3]; 4 H, 0.5 nmole YC-I-27): 0 % injected dose/g
- Biodistribution, salivary gland ([3]; 4 H, 0.5 nmole YC-I-27): 0.3 ± 0.2 % injected dose/g
- Biodistribution, Blood ([3]; 4 H, + 0.25 nmole YC-I-27): 0.2 ± 0.1 % injected dose/g
- Biodistribution, Flu tumor ([3]; 4 H, + 0.25 nmole YC-I-27): 0.1 ± 0.2 % injected dose/g
- Biodistribution, PIP tumor ([3]; 4 H, + 0.25 nmole YC-I-27): 27.8 ± 8.7 % injected dose/g
- Biodistribution, Spleen ([3]; 4 H, + 0.25 nmole YC-I-27): 0.1 ± 0.5 % injected dose/g
- Biodistribution, Stomach ([3]; 4 H, + 0.25 nmole YC-I-27): 0.5 ± 0.3 % injected dose/g
- Biodistribution, kidney ([3]; 4 H, + 0.25 nmole YC-I-27): 1.4 ± 0.3 % injected dose/g
- Biodistribution, lacrimal gland ([3]; 4 H, + 0.25 nmole YC-I-27): 0.4 ± 0.4 % injected dose/g
- Biodistribution, salivary gland ([3]; 4 H, + 0.25 nmole YC-I-27): 0.2 ± 0.1 % injected dose/g
- Biodistribution, Blood ([3]; 4 H, no blocker): 0.1 ± 0.03 % injected dose/g
- Biodistribution, Flu tumor ([3]; 4 H, no blocker): 0.1 ± 0.1 % injected dose/g
- Biodistribution, Spleen ([3]; 4 H, no blocker): 0 % injected dose/g
- Biodistribution, Stomach ([3]; 4 H, no blocker): 0.3 ± 0.2 % injected dose/g
- Biodistribution, kidney ([3]; 4 H, no blocker): 2.1 ± 0.6 % injected dose/g
- Biodistribution, lacrimal gland ([3]; 4 H, no blocker): 0.3 ± 1.1 % injected dose/g
- Biodistribution, salivary gland ([3]; 4 H, no blocker): 0.2 ± 0.1 % injected dose/g
- Biodistribution, Blood [3, 5]: 0.3 ± 1.0 % injected dose/g
- Biodistribution, Flu tumor [3, 5]: 0.04 ± 0.2 % injected dose/g
- Biodistribution, PIP tumor [3, 5]: 15.3 ± 8.0 % injected dose/g
- Biodistribution, Spleen [3, 5]: 0 % injected dose/g
- Biodistribution, Stomach [3, 5]: 0.3 ± 0.4 % injected dose/g
- Biodistribution, kidney [3, 5]: 0.3 ± 0.4 % injected dose/g
- Biodistribution, lacrimal gland [3, 5]: 0 % injected dose/g
- Biodistribution, salivary gland [3, 5]: 0 % injected dose/g
- Biodistribution, Blood [3, 6]: 0 % injected dose/g
- Biodistribution, Flu tumor [3, 6]: 0 % injected dose/g
- Biodistribution, PIP tumor [3, 6]: 9.5 ± 1.0 % injected dose/g
- Biodistribution, Spleen [3, 6]: 0 % injected dose/g
- Biodistribution, Stomach [3, 6]: 0 % injected dose/g
- Biodistribution, kidney [3, 6]: 0.02 ± 0.2 % injected dose/g
- Biodistribution, lacrimal gland [3, 6]: 0 % injected dose/g
- Biodistribution, salivary gland [3, 6]: 0 % injected dose/g
- Biodistribution, Blood ([3]; 21-24 Hour, 0.5 nmole YC-I-27): 0.03 ± 0.3 % injected dose/g
- Biodistribution, Flu tumor ([3]; 21-24 Hour, 0.5 nmole YC-I-27): 0.2 ± 0.3 % injected dose/g
- Biodistribution, PIP tumor ([3]; 21-24 Hour, 0.5 nmole YC-I-27): 17.5 ± 7.9 % injected dose/g
- Biodistribution, Spleen ([3]; 21-24 Hour, 0.5 nmole YC-I-27): 2.5 ± 4.3 % injected dose/g
- Biodistribution, Stomach ([3]; 21-24 Hour, 0.5 nmole YC-I-27): 0.4 ± 0.7 % injected dose/g
- Biodistribution, kidney ([3]; 21-24 Hour, 0.5 nmole YC-I-27): 0.4 ± 0.5 % injected dose/g
- Biodistribution, lacrimal gland ([3]; 21-24 Hour, 0.5 nmole YC-I-27): 0 % injected dose/g
- Biodistribution, salivary gland ([3]; 21-24 Hour, 0.5 nmole YC-I-27): 0 % injected dose/g
- kidney and stomach uptake ([3]; compared to other At-211 labeled PSMA inhibitors): lower kidney and stomach uptake
- Stomach uptake ([4]; @ 1 h): 0.4±0.2 % ID/g
- retention, K ([4]; @1 h, co-injection of DCIBzL): 2.2±0.6 % ID/g
- retention, LG ([4]; @1 h, co-injection of DCIBzL): below detection
- retention, SG ([4]; @1 h, co-injection of DCIBzL): 0.4±0.15 % ID/g
- Stomach uptake ([4]; @ 4 h): 0.4±0.05 % ID/g
- Stomach uptake ([4]; @ 24 h): 0.4±0.7 % ID/g
- ^211At uptake in PSMA+ PC3-PIP xenografts ([4]; combined with DCIBzL): 25.4±4.4 % ID/g
- deastatination in vivo ([4]; mouse, in vivo, listed as [^211At]3): negligible deastatination; also recorded: no evidence of deastatination in vivo
- response in PSMA+ PC3-PIP SC model (SC tumor volume) (PSMA+ PC3-PIP): dose-dependent response; also recorded: dose-dependent efficacy
- effect on PSMA− PC3-flu SC model (PSMA− PC3-flu): no effect
- treatment-related toxicity (overall health status and urinalysis) (CD-1 mice): No CD-1 animals showed treatment-related toxicity
- renal clearance [1, 7]: rapid renal clearance
- retention in PSMA+tumors [1, 7]: persistent retention
